Assay results: PubChem BioAssay AID651875 (NMMLSC, 2012)

test system: AM2.2 cells FAP-GPR32, fluorogen binding, flow cytometry MCF; test: interference with FAP fluorogen signal – AM2.2 cells, flow cytometry, powder set 4, counter-screen for beta2AR agonist internalization project, dose response (AID 651875)

Compound	EC50
CC(=O)Nc1ccc(S(=O)(=O)N2CCCCC2c2cccnc2)cc1 (stereo not given)	15.6 nM
Cc1ccc(S(=O)(=O)N(C)CC(=O)N2CCN(c3ccccn3)CC2)cc1	3.7 nM
O=C(C1CCC(=O)N1S(=O)(=O)c1ccccc1)N1CCN(c2ccccn2)CC1 (stereo not given)	49.6 nM
COc1ccccc1N1CCN(C(=O)CN(C)S(=O)(=O)c2ccc(C)cc2)CC1	974 nM
O=C(CN(Cc1ccccc1)S(=O)(=O)c1ccc(Cl)cc1)N1CCN(c2ccccn2)CC1	316 nM
